Source: EP4324461A1, “(E)-N-CINAMOYLAMINOALKANOLES WITH MELANOGENESIS INHIBITORY ACTIVITY” (UNIWERSYTET JAGIELLONSKI, priority 2022, dated 2024)
Where two headings read alike, the source gives them in different places.

Experiments:
[1] = Lipophilicity coefficient RM0 by reversed phase thin layer chromatography; format: physicochemical; conditions: RP-18 TLC, methanol / 100 mM phosphate buffer pH = 7.4
Protocol: Confirmation of the identity and purity of the obtained compounds consisted in the registration and interpretation of ^1H NMR and ^13C NMR spectra (the spectra were recorded using an ECZR 500 MHz (JEOL) series FT-NMR spectrophotometer), as well as the registration and interpretation of LC-MS spectra (the spectra were recorded using Acquita UPLC system (Waters) coupled with a Waters TQD mass spectrometer). The melting point was measured using the open capillary method in the IA9300 device (Electrothermal). The lipophilicity coefficient RM0 was determined by reversed phase thin layer chromatography. In the study, aluminum plates 20x20 cm covered with modified silica gel RP-18 F254 (Merck) were used as the solid phase. The mobile phase consisted of solutions of methanol and 100 mM phosphate buffer (pH = 7.4), characterized by a variable methanol content ranging from 95 to 65% (v/v). The tested compounds were dissolved in methanol to obtain solutions with a concentration of 1 mg/mL. Then, 5 µL of the solutions prepared in this way were transferred to the starting line on aluminum plates, which were then placed in chromatographic chambers previously saturated with mobile phase vapors for at least 1 hour. All activities, including the development of chromatograms, were carried out at room temperature. After developing the chromatograms to approximately 1-2 cm from the end of the plate, the plates were dried and then the distance traveled by the tested compounds was visualized under UV light (λ = 254 nm). The experiment was performed in duplicate for the specified conditions. For all samples, Rf was calculated according to the formula Rf = a/b, where a - the distance traveled by the tested compound, b - the distance traveled by the mobile phase. Then, the RM parameter was calculated for all samples according to the formula RM = log(1/Rf - 1), obtaining a linear relationship between the RM values and the methanol concentration in the mobile phase. The logP coefficient was also calculated using the following computer programs: ACD/ChemSketch 2020.1.2 and ChemDraw 20.0.0.41. Table 2. The physicochemical data of the compounds are presented below

[2] = system: B16-F10 murine melanoma cell line; assay: Cytotoxicity in B16-F10 cells (MTT); format: cell-based; conditions: 48 h
Protocol: In order to determine safe doses of compounds for testing the inhibition of melanogenesis in a murine melanoma cell line, cytotoxicity tests were performed. Cytotoxicity was determined by the colorimetric method using MTT ([3-(4,5-dimethyl-2-thiazolyl)-2,5-diphenyl-2H-tetrazolium bromide, Sigma M5655). For this purpose, cells were transferred to 96-well plates in an amount of 5000/well. After 24 h of culture in an incubator in F 10-Ham medium with 1% FBS, the tested compounds at various concentrations were added to the wells together with fresh medium. DMSO was added to the medium in a negative control. The MTT test was performed after further culture for 48 h. Then the medium was removed and the formed formazan crystals were dissolved in DMSO. The absorbance was measured at 570 nm in a plate reader and the result was compared to the control (DMSO), which was 100%. The percentage of viability was calculated using the formula: [AT/AC^∗100], where AT is the absorbance of the test sample, AC - absorbance of the control sample. Table 3. Results of inhibiting the activity of monophenolase […] tyrosinase and cytotoxicity testing in B16F10 cells for the described compounds.

tyrosinase from mushroom = assay: Inhibition of commercial mushroom tyrosinase (L-DOPA or L-tyrosine substrate); format: biochemical
Protocol: The following substrates were used for the enzymatic reaction: L-tyrosine and L-3,4-dihyroxyphenylalanine (L-DOPA). Both substrates were used in independent experiments. According to the literature, the use of L-DOPA enables the assessment of tyrosinase diphenolase activity, and L-tyrosine - the tyrosinase monophenolase activity. The determinations were performed in 96-well plates, in each well there was placed: 170 µL or 127.5 µL of 50 mM phosphate buffer (pH = 6.8) with tyrosinase (1U/well or 3U/well) and 10 µL of a solution of the tested compound in DMSO (the final concentration in the well was 500 µM, 250 µM or 125 µM). The negative control used 10 µL of pure solvent (DMSO). To initiate the reaction, an appropriate substrate was added: L-tyrosine (62.5 µL of solution in phosphate buffer) or L-DOPA (20 µL of solution in phosphate buffer). After a 25-minute incubation, the absorbance was measured at 475 nm using a microplate reader. The percentage of inhibition of tyrosinase activity was calculated using the formula: [(AC -AT)/AC] × 100, where AC - is the absorbance of the negative control, AT - is the absorbance of the sample containing the tested compound.

[3] = L-DOPA, read-out: Tyrosinase inhibition with L-DOPA, IC50
[4] = L-tyrosine, read-out: Tyrosinase inhibition with L-tyrosine, IC50

Structure (SMILES) | RM0 [1] | Tyrosinase inhibition with L-DOPA [%] (tyrosinase from mushroom; L-DOPA, 125 µM) | Tyrosinase inhibition with L-tyrosine [%] (tyrosinase from mushroom; L-tyrosine, 125 µM) | Tyrosinase inhibition with L-DOPA [%] (tyrosinase from mushroom; L-DOPA) | Tyrosinase inhibition with L-tyrosine [%] (tyrosinase from mushroom; L-tyrosine) | IC50 (tyrosinase from mushroom; [3]) | IC50 (tyrosinase from mushroom; [4]) | Cytotoxicity study in B16F10 cells % viability ([2]; 150 µM) | Cytotoxicity study in B16F10 cells % viability ([2]; 200 µM) | Cytotoxicity study in B16F10 cells % viability ([2]; 250 µM)
O=C(/C=C/c1ccc(Cl)cc1)NCCCCCCO [H-426/21, (2E)-3-(4-chlorophenyl)-N-(6-hydroxyhexyl)prop-2-enamide] | 3.02 | 30.66±1.82% (125 µM) | 39.89±3.21% (125 µM) | – | – | – | – | 30.3% | 28.2% | 28.3%
O=C(/C=C/c1ccc(Cl)cc1Cl)NCCCO [H-296/20, (2E)-3-(2,4-dichlorophenyl)-N-(3-hydroxypropyl)prop-2-enamide] | 2.11 | – | – | 18.63±1.67% (500 µM) | 17.87±7.36% (500 µM) | – | – | 67.0% | 57.0% | 38.3%
Cc1ccc(/C=C/C(=O)NCCCCO)cc1 [H-411/21, (2E)-N-(4-hydroxybutyl)-3-(4-methylphenyl)prop-2-enamide] | 2.27 | – | – | 16.89±7.94% (500 µM) | 20.43±2.09% (500 µM) | – | – | 50.6% | 34.9% | 41.2%
O=C(/C=C/c1ccc(Cl)cc1Cl)NCCCCO [H-298/20, (2E)-3-(2,4-dichlorophenyl)-N-(4-hydroxybutyl)prop-2-enamide] | 2.78 | – | – | 11.16±2.78 (500 µM) % | 20±2.96% (500 µM) | – | – | 46.5% | 40.6% | 37.4%
Cc1ccc(/C=C/C(=O)NCCCO)cc1 [H-410/21, (2E)-N-(3-hydroxypropyl)-3-(4-methylphenyl)prop-2-enamide] | 2.04 | – | – | 16.99±5.66% (500 µM) | 0.51±5.40% (500 µM) | – | – | 88.8% | 90.7% | 79.8%
O=C(/C=C/c1ccc(Cl)cc1Cl)NCCCCCO [H-297/20, (2E)-3-(2,4-dichlorophenyl)-N-(5-hydroxypentyl)prop-2-enamide] | 3.08 | – | – | 20.53±2.84% (500 µM) | 19.09±2.53% (500 µM) | – | – | 102.3% | 73.6% | 88.5%
CCC(CO)NC(=O)/C=C/c1ccc(C)cc1 (stereo not shown) [H-409/21, (2E)-N-(1-hydroxybutan-2-yl)-3-(4-methylphenyl)prop-2-enamide] | 2.49 | – | – | 21.81±2.31% (500 µM) | 15.31±8.27% (500 µM) | – | – | 83.2% | 95.3% | 103.4%
O=C(/C=C/c1ccc(Cl)cc1Cl)N1CCC(O)CC1 [H-310/20, (2E)-3-(2,4-dichlorophenyl)-1-(4-hydroxypiperidin-1-yl)prop-2-en-1-one] | 2.80 | – | – | 7.23±0.81% (500 µM) | 19.24±3.44% (500 µM) | – | – | 89.5% | 100.4% | 93.0%

More lines, main results first:

RM0 [1] | Tyrosinase inhibition with L-DOPA [%] (tyrosinase from mushroom; L-DOPA, 125 µM) | Tyrosinase inhibition with L-tyrosine [%] (tyrosinase from mushroom; L-tyrosine, 125 µM) | Tyrosinase inhibition with L-DOPA [%] (tyrosinase from mushroom; L-DOPA) | Tyrosinase inhibition with L-tyrosine [%] (tyrosinase from mushroom; L-tyrosine) | IC50 (tyrosinase from mushroom; [3]) | IC50 (tyrosinase from mushroom; [4]) | Structure (SMILES) | Cytotoxicity study in B16F10 cells % viability ([2]; 150 µM) | Cytotoxicity study in B16F10 cells % viability ([2]; 200 µM) | Cytotoxicity study in B16F10 cells % viability ([2]; 250 µM)
1.60 | – | – | 34.55±4.18% (500 µM) | 35.50±1.37% (500 µM) | 1560 µM | 1030 µM | O=C(/C=C/c1ccccc1)NCCCCO [Compound A-43, (2E)-N-(4-hydroxybutyl)-3-phenylprop-2-enamide] | 108.9% | 105.7% | 103.2%
2.39 | – | – | 21.19±1.26% (500 µM) | 30.22±10.22% (500 µM) | – | – | CCC(O)CNC(=O)/C=C/c1ccc(C)cc1 (stereo not shown) [Compound A-63, (2E)-N-(2-hydroxybutyl)-3-(4-methylphenyl)prop-2-enamide] | 90.2% | 87.3% | 87.4%
2.76 | – | – | 41.17±0.81% (500 µM) | 57.62±2.11% (500 µM) | 906 µM | 405 µM | CC(C)C(CO)NC(=O)/C=C/c1ccc(Cl)cc1 (stereo not shown) [Compound A-106, (2E)-3-(4-chlorophenyl)-N-(1-hydroxy-3-methylbutan-2-yl)prop-2-enamide] | 85.9% | 88.1% | 72.6%
